Results: ChEMBL document CHEMBL4507278 (2021)

Experiments:
[1] = biological target: Tyrosine-protein kinase receptor UFO (Homo sapiens) (UniProt P30530); conditions: Compound concentration 1000.0 nM
[2] = biological target: Cyclin-dependent kinase 7 (Homo sapiens) (UniProt P50613); conditions: Compound concentration 1000.0 nM
[3] = biological target: Casein kinase I isoform alpha-like (Homo sapiens) (UniProt Q8N752); conditions: Compound concentration 1000.0 nM
[4] = biological target: Casein kinase I isoform gamma-2 (Homo sapiens) (UniProt P78368); conditions: Compound concentration 1000.0 nM
[5] = biological target: Epidermal growth factor receptor (Homo sapiens) (UniProt P00533); conditions: Compound concentration 1000.0 nM
[6] = system: Epidermal growth factor receptor (Homo sapiens), P00533 [L858R]; conditions: Compound concentration 1000.0 nM
[7] = biological target: Ephrin type-B receptor 3 (Homo sapiens) (UniProt P54753); conditions: Compound concentration 1000.0 nM
[8] = biological target: Mitogen-activated protein kinase 3 (Homo sapiens) (UniProt P27361); conditions: Compound concentration 1000.0 nM
[9] = biological target: Mitogen-activated protein kinase 4 (Homo sapiens) (UniProt P31152); conditions: Compound concentration 1000.0 nM
[10] = biological target: Receptor-type tyrosine-protein kinase FLT3 (Homo sapiens) (UniProt P36888); conditions: Compound concentration 1000.0 nM
[11] = biological target: Interleukin-1 receptor-associated kinase 1 (Homo sapiens) (UniProt P51617); conditions: Compound concentration 1000.0 nM
[12] = biological target: Mitogen-activated protein kinase 8 (Homo sapiens) (UniProt P45983); conditions: Compound concentration 1000.0 nM
[13] = biological target: Mitogen-activated protein kinase 9 (Homo sapiens) (UniProt P45984); conditions: Compound concentration 1000.0 nM
[14] = biological target: Serine/threonine-protein kinase mTOR (Homo sapiens) (UniProt P42345); conditions: Compound concentration 1000.0 nM
[15] = biological target: Muscle, skeletal receptor tyrosine-protein kinase (Homo sapiens) (UniProt O15146); conditions: Compound concentration 1000.0 nM
[16] = biological target: Myosin light chain kinase 2, skeletal/cardiac muscle (Homo sapiens) (UniProt Q9H1R3); conditions: Compound concentration 1000.0 nM
[17] = biological target: Serine/threonine-protein kinase Nek4 (Homo sapiens) (UniProt P51957); conditions: Compound concentration 1000.0 nM
[18] = biological target: Serine/threonine-protein kinase pim-2 (Homo sapiens) (UniProt Q9P1W9); conditions: Compound concentration 1000.0 nM
[19] = biological target: Proto-oncogene tyrosine-protein kinase receptor Ret (Homo sapiens) (UniProt P07949); conditions: Compound concentration 1000.0 nM
[20] = system: Proto-oncogene tyrosine-protein kinase receptor Ret (Homo sapiens), P07949 [V804M]; conditions: Compound concentration 1000.0 nM
[21] = biological target: Ribosomal protein S6 kinase alpha-5 (Homo sapiens) (UniProt O75582); conditions: Compound concentration 1000.0 nM
[22] = biological target: Ribosomal protein S6 kinase alpha-3 (Homo sapiens) (UniProt P51812); conditions: Compound concentration 1000.0 nM
[23] = biological target: Serine/threonine-protein kinase tousled-like 1 (Homo sapiens) (UniProt Q9UKI8); conditions: Compound concentration 1000.0 nM
[24] = biological target: High affinity nerve growth factor receptor (Homo sapiens) (UniProt P04629); conditions: Compound concentration 1000.0 nM
[25] = biological target: Wee1-like protein kinase 2 (Homo sapiens) (UniProt P0C1S8); conditions: Compound concentration 1000.0 nM
[26] = biological target: Serine/threonine-protein kinase 32A (Homo sapiens) (UniProt Q8WU08); conditions: Compound concentration 1000.0 nM
[27] = biological target: T1, D(4) dopamine receptor (Homo sapiens) (UniProt P21917); conditions: Compound concentration 10.0 uM
T1 sequence (whole entry): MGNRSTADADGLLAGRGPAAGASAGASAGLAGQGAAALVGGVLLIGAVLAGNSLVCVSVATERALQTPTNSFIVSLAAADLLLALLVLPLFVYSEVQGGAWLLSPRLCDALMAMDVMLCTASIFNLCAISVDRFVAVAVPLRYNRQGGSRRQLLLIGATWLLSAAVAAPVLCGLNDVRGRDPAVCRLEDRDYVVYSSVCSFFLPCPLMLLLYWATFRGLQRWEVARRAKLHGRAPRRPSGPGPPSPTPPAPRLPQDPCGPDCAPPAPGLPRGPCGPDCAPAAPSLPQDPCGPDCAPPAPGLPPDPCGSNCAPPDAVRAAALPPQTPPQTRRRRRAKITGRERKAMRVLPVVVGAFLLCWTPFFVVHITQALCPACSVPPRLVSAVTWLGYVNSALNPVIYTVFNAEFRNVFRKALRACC

[28] = biological target: Kappa-type opioid receptor (Homo sapiens) (UniProt P41145); conditions: Compound concentration 10.0 uM
[29] = biological target: GABA-A receptor; anion channel (Rattus norvegicus) (UniProt O09028+P15431+P18506+P18508+P19969+P20236+P23574+P23576+P28471+P28473+P30191+P62813+P63079+P63138+Q91ZM7+Q9ES14); conditions: Compound concentration 10.0 uM
[30] = biological target: T2, Alpha-1D adrenergic receptor (Homo sapiens) (UniProt P25100); conditions: Compound concentration 10.0 uM
T2 sequence (whole entry): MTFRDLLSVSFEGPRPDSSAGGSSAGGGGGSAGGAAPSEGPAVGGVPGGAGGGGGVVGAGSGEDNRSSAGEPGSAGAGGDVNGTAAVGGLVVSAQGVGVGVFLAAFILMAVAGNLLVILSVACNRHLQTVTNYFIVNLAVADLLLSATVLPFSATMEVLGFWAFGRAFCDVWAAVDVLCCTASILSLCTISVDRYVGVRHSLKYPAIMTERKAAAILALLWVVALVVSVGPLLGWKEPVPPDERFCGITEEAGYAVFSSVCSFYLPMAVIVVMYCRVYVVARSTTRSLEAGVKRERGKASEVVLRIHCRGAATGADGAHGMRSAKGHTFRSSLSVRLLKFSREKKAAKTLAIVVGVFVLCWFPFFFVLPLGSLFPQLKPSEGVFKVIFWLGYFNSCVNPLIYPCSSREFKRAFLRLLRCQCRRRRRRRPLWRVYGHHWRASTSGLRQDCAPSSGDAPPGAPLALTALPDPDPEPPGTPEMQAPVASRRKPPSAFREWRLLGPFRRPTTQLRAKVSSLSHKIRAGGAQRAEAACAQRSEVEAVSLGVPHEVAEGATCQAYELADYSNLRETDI

[31] = biological target: Sigma non-opioid intracellular receptor 1 (Homo sapiens) (UniProt Q99720); conditions: Compound concentration 10.0 uM
Sequence of Sigma non-opioid intracellular receptor 1 (Homo sapiens) (Q99720 whole entry): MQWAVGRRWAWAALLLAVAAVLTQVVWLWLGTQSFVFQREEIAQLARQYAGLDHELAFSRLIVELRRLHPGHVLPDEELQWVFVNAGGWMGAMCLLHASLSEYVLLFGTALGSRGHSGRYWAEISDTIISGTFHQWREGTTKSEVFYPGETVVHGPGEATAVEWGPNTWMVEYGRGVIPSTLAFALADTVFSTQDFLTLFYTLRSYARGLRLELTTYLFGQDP

Sequence of Serine/threonine-protein kinase tousled-like 1 (Homo sapiens) (Q9UKI8 whole entry): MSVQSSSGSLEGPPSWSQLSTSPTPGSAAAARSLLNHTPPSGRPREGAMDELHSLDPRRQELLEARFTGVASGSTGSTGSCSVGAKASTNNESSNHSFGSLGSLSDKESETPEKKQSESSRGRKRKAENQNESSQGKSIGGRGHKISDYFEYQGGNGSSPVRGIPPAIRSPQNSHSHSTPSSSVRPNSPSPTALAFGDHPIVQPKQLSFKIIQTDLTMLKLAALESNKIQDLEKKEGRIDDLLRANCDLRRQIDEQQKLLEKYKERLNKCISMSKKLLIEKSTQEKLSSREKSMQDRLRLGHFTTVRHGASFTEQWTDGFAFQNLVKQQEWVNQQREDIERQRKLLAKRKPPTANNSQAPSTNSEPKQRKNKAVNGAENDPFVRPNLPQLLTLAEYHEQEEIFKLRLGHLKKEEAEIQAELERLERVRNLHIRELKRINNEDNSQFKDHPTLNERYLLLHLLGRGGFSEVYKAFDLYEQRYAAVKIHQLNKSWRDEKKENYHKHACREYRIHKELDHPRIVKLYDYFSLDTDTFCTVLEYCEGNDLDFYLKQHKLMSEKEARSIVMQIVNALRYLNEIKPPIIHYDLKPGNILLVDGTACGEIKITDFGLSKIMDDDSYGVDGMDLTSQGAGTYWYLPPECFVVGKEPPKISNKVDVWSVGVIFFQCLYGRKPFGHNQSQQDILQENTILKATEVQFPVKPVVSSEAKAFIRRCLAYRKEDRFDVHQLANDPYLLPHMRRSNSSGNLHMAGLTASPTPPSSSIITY
Sequence of Proto-oncogene tyrosine-protein kinase receptor Ret (Homo sapiens) (P07949 whole entry): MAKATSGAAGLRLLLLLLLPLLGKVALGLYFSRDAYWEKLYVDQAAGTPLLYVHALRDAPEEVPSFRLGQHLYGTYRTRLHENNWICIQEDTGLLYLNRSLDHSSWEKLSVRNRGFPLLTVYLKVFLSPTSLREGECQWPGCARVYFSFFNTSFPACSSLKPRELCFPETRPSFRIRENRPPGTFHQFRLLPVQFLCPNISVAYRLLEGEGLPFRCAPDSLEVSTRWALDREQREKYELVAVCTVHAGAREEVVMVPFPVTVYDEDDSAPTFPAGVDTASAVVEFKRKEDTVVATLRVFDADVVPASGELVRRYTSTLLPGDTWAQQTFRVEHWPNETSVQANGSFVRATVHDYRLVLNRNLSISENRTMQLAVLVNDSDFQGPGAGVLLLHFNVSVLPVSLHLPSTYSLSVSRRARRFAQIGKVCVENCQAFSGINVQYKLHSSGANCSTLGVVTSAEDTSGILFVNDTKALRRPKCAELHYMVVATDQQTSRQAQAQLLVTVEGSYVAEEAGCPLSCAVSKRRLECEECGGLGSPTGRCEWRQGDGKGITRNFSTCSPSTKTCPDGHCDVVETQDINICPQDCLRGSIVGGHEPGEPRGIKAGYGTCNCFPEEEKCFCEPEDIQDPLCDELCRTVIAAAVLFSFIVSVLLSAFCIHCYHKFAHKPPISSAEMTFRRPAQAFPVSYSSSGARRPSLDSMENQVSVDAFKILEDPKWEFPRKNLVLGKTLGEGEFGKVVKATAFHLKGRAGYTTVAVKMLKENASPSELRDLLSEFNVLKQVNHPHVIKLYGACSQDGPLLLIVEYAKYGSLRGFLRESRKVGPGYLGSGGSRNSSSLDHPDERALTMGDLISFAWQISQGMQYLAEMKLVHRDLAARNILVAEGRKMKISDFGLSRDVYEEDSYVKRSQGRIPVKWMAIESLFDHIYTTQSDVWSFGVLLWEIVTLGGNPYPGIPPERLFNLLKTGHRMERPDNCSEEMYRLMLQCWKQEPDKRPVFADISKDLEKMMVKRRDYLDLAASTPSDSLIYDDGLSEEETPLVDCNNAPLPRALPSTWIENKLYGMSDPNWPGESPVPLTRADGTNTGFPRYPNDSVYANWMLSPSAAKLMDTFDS
Sequence of Muscle, skeletal receptor tyrosine-protein kinase (Homo sapiens) (O15146 whole entry): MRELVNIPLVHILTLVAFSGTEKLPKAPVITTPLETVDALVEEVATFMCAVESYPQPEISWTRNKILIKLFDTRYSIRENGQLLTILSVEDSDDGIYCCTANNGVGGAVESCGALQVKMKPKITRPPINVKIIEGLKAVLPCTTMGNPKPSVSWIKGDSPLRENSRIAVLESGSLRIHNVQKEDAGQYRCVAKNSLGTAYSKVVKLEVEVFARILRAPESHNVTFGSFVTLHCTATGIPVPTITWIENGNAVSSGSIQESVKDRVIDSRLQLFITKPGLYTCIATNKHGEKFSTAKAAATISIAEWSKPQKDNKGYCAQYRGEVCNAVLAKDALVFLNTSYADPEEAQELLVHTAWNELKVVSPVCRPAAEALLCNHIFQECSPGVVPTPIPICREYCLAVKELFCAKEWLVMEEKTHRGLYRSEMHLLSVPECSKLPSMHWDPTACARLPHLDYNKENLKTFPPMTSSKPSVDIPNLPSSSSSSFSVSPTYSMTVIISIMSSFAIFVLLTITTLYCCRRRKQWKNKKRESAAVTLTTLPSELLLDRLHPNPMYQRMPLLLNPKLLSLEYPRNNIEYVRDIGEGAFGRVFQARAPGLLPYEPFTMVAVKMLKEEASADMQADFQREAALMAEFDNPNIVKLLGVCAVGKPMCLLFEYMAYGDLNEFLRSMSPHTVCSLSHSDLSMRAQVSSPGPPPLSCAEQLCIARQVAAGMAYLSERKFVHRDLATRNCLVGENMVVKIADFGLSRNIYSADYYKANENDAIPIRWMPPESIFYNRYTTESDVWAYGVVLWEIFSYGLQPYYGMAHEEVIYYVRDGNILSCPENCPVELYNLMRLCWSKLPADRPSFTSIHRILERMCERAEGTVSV
Sequence of Casein kinase I isoform gamma-2 (Homo sapiens) (P78368 whole entry, looked up, canonical isoform): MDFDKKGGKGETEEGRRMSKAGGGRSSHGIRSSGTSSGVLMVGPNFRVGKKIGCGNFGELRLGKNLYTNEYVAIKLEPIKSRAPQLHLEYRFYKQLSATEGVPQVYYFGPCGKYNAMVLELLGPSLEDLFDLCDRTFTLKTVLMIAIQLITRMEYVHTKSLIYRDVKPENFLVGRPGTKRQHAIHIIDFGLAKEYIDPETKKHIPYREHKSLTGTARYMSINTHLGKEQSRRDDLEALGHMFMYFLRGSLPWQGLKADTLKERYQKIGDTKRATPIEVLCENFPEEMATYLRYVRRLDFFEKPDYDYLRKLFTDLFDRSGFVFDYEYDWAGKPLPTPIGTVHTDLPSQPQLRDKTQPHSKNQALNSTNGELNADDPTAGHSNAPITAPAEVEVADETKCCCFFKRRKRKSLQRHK
Sequence of Receptor-type tyrosine-protein kinase FLT3 (Homo sapiens) (P36888 whole entry): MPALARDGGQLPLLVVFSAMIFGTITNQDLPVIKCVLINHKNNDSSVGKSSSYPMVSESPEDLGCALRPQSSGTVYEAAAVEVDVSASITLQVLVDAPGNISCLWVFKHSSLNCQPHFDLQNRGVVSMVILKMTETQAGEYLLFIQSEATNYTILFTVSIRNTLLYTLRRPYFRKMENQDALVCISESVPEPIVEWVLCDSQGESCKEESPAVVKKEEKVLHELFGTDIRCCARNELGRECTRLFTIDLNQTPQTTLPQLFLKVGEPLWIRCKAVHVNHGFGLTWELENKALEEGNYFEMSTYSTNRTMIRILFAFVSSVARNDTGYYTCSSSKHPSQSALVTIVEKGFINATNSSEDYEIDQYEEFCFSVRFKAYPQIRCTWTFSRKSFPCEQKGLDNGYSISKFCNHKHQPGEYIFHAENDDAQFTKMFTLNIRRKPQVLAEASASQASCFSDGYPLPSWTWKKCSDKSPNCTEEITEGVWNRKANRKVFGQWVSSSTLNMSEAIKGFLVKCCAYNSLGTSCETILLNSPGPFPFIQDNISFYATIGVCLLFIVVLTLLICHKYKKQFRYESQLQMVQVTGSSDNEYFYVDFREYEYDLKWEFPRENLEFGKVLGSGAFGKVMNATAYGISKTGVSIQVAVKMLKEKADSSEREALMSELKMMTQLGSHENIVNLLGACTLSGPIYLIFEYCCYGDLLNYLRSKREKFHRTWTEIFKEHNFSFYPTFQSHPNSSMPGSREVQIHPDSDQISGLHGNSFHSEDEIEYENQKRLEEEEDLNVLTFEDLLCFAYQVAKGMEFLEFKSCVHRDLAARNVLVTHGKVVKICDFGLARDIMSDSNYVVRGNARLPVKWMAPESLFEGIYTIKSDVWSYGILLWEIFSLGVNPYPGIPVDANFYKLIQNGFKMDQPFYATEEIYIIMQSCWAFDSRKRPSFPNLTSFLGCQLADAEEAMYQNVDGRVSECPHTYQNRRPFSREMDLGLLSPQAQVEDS
Sequence of Myosin light chain kinase 2, skeletal/cardiac muscle (Homo sapiens) (Q9H1R3 whole entry): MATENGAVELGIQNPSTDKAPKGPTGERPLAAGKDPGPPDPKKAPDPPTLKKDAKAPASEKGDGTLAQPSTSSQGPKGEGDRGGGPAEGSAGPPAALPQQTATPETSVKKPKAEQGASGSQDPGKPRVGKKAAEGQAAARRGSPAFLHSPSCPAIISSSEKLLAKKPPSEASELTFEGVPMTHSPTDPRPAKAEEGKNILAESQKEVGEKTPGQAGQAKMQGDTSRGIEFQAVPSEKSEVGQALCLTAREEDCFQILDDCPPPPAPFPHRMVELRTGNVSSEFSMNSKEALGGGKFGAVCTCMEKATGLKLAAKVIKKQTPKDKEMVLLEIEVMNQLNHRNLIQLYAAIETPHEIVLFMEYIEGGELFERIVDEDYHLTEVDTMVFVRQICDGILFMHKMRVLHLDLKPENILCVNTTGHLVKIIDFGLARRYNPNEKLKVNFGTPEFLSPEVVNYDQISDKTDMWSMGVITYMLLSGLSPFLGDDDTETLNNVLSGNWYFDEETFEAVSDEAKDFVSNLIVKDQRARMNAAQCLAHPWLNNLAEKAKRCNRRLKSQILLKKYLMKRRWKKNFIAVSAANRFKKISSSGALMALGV
Sequence of Proto-oncogene tyrosine-protein kinase receptor Ret (Homo sapiens), P07949 [V804M] (P07949 whole entry V804M): as the sequence (P07949 whole entry) above, with V804M counted along it

CS(=O)(=O)NCC[C@H](NC(=O)c1cncc2c1cnn2-c1ccc(F)cc1)c1ccnc(S(C)(=O)=O)c1 [BI 9307]
inactive: residual activity [1] 95% | residual activity [2] 100% | residual activity [3] 94% | residual activity [4] 89% | residual activity [5] 84% | residual activity [6] 83% | residual activity [7] 100% | residual activity [8] 97% | residual activity [9] 100% | residual activity [10] 100% | residual activity [11] 100% | residual activity [12] 80% | residual activity [13] 86% | residual activity [14] 88% | residual activity [15] 100% | residual activity [16] 93% | residual activity [17] 100% | residual activity [18] 86% | residual activity [19] 91% | residual activity [20] 96% | residual activity [21] 100% | residual activity [22] 98% | residual activity [23] 100% | residual activity [24] 97% | residual activity [25] 100% | residual activity [26] 74% | inhibition [27] -5.61% | inhibition [28] 0.74% | inhibition [29] 10.4% | inhibition [30] -9.49% | inhibition [31] 7.62%

CS(=O)(=O)c1cc(C2(NC(=O)c3cncc4c3cnn4-c3ccc(F)cc3)CC2)ccn1 [BI 639667]
inactive: residual activity [1] 100% | residual activity [2] 90% | residual activity [3] 100% | residual activity [4] 100% | residual activity [5] 100% | residual activity [6] 100% | residual activity [7] 100% | residual activity [8] 100% | residual activity [9] 79% | residual activity [10] 93% | residual activity [11] 87% | residual activity [12] 95% | residual activity [13] 100% | residual activity [14] 100% | residual activity [15] 68% | residual activity [16] 100% | residual activity [17] 100% | residual activity [18] 100% | residual activity [19] 100% | residual activity [20] 97% | residual activity [21] 61% | residual activity [22] 100% | residual activity [23] 75% | residual activity [24] 96% | residual activity [25] 100% | residual activity [26] 71% | inhibition [27] -1.14% | inhibition [28] 1.68% | inhibition [29] 3.75% | inhibition [30] -7.67% | inhibition [31] 26.4%
